According to the supplement of paper PMC11208160:

assay: recombinant UMI read abundance after kanamycin selection (control-corrected) (log10(CPM+1)); higher = more efficient recombination; extreme values may be limits of the assay; sequences stand for … in AGTGCAGAGAAAATCGGCCAGTTTTCTCTGCCTGCAGTCCGCATGCCGTGGGACCCCTTGGGTTCTAACCTGTTGCCTAGATTTATGCAGCGGACTGCCTTTCTCCCAAAGTGATAAACCGG…AGGTTGGTTTCACT; site = the 11-nt donor
In short: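 Counts of recombinant UMIs were reported as log10(CPM+1). Before that, they were converted to CPM, averaged over replicates and scaled using control-derived factors. They came from PCR across the donor–target junction after Escherichia coli carrying the pair library and target plasmid was plated on IPTG (0.07 mM) plus kanamycin, or unselected, in two replicates each.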
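Also: IS621 bridge recombinase in Escherichia coli cells against a fixed T5 target plasmid.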

| Sequence | recombinant UMI read abundance (log10) |
| --- | --- |
| CGGGAACCATGGACCGGTTTTCCCGGTAATCCGTATTTGTT (site CGGGAACCTAA) | 0.47 |
| CGGGAACCATGGACCGGTTTTCCCGGTAATCCGTATTTGTT (site CGGGAACCTAC) | 0 |
| CGGGAACCATGGACCGGTTTTCCCGGTAATCCGTATTTGTT (site CGGGAACCTAG) | 0 |
| CGGGAACCATGGACCGGTTTTCCCGGTAATCCGTATTTGTT (site CGGGAACCTAT) | 0.0108 |
| CGGGAGACATGGACCGGTTTTCCCGGTAATCCGTATTTGCC (site CGGGAGACTGG) | 1.58 |
| CGGGAGACATGGACCGGTTTTCCCGGTAATCCGTATTTGCC (site CGGGAGCCTGG) | 0 |
| CGGGAGACATGGACCGGTTTTCCCGGTAATCCGTATTTGCC (site CGGGAGGCTGG) | 1.69 |
| CGGGAGACATGGACCGGTTTTCCCGGTAATCCGTATTTGCC (site CGGGAGTCTGG) | 0.663 |
| CGGGAGTCATGGACCGGTTTTCCCGGTAATCCGTATTTGCG (site CGGGAGTCTAG) | 1.03 |
| CGGGAGTCATGGACCGGTTTTCCCGGTAATCCGTATTTGCG (site CGGGAGTCTCG) | 2.8 |
| CGGGAGTCATGGACCGGTTTTCCCGGTAATCCGTATTTGCG (site CGGGAGTCTGG) | 0 |
| CGGGAGTCATGGACCGGTTTTCCCGGTAATCCGTATTTGCG (site CGGGAGTCTTG) | 0.888 |
| CGGGAGTCATGGACCGGTTTTCCCGGTAATCCGTATTTGGC (site CGGGAGTCTGA) | 1.59 |
| CGGGAGTCATGGACCGGTTTTCCCGGTAATCCGTATTTGGC (site CGGGAGTCTGC) | 2.76 |
| CGGGAGTCATGGACCGGTTTTCCCGGTAATCCGTATTTGGC (site CGGGAGTCTGG) | 0.911 |
| CGGGAGTCATGGACCGGTTTTCCCGGTAATCCGTATTTGGC (site CGGGAGTCTGT) | 1.96 |
| CGGGATCCATGGACCGGTTTTCCCGGTAATCCGTATTTGCT (site CGGAATCCTAA) | 0.0224 |
| CGGGATCCATGGACCGGTTTTCCCGGTAATCCGTATTTGCT (site CGGGATCCTAG) | 0 |
| CGGGCACCATGGACCGGTTTTCCCGGTAATCCGTATTTGCA (site AGGGCACCTTG) | 0.0117 |

| Sequence | recombinant UMI read abundance (log10) |
| --- | --- |
| CGGGCACCATGGACCGGTTTTCCCGGTAATCCGTATTTGCA (site CGGGCACCTTG) | 0 |
| CGGGCACCATGGACCGGTTTTCCCGGTAATCCGTATTTGCA (site GGGGCACCTTG) | 0.00963 |
| CGGGCACCATGGACCGGTTTTCCCGGTAATCCGTATTTGCA (site TGGGCACCTTG) | 0 |
| CGGGGACCATGGACCGGTTTTCCCGGTAATCCGTATTTGAT (site CGGGAACCTAT) | 0 |
| CGGGGACCATGGACCGGTTTTCCCGGTAATCCGTATTTGAT (site CGGGCACCTAT) | 0.00825 |
| CGGGGACCATGGACCGGTTTTCCCGGTAATCCGTATTTGAT (site CGGGGACCTAT) | 0 |
| CGGGGACCATGGACCGGTTTTCCCGGTAATCCGTATTTGAT (site CGGGTACCTAT) | 0 |
| CGGGGACCATGGACCGGTTTTCCCGGTAATCCGTATTTGGG (site CGAGGACCTCC) | 0.0137 |
| CGGGGACCATGGACCGGTTTTCCCGGTAATCCGTATTTGGG (site CGCGGACCTCC) | 0.0363 |
| CGGGGACCATGGACCGGTTTTCCCGGTAATCCGTATTTGGG (site CGGGGACCTCC) | 0.0134 |
| CGGGGACCATGGACCGGTTTTCCCGGTAATCCGTATTTGGG (site CGTGGACCTCC) | 0.00366 |
| CGGGGCGCATGGACCGGTTTTCCCGGTAATCCGTATTTGAA (site CGGGGCGCTTT) | 1.26 |
| CGGGGCGCATGGACCGGTTTTCCCGGTAATCCGTATTTGGC (site CGGGGCGCTGC) | 3.06 |
| CGGGGCTCATGGACCGGTTTTCCCGGTAATCCGTATTTGCA (site CGGGGCTCTTG) | 2.79 |
| CGGGGTCCATGGACCGGTTTTCCCGGTAATCCGTATTTGAT (site CGGGGTCCTAT) | 0 |
| CGGGTTGCATGGACCGGTTTTCCCGGTAATCCGTATTTGGT (site CGGGTTGCTAC) | 1.77 |
| CGGTACCCATGGACCGGTTTTCCCGGTAATCCGTATTTGAG (site CGGTACCCTCT) | 0.188 |
| CGGTCACCATGGACCGGTTTTCCCGGTAATCCGTATTTGTA (site CGGTCACCTTA) | 0 |
| CGGTCATCATGGACCGGTTTTCCCGGTAATCCGTATTTGCA (site CGATCATCTAG) | 0.01 |

| Sequence | recombinant UMI read abundance (log10) |
| --- | --- |
| CGGTCATCATGGACCGGTTTTCCCGGTAATCCGTATTTGCA (site CGGTCATCTTG) | 0.39 |
| CGGTCCTCATGGACCGGTTTTCCCGGTAATCCGTATTTGCA (site CGGTCCTCTTG) | 0 |
| CGGTCTGCATGGACCGGTTTTCCCGGTAATCCGTATTTGAG (site CGGTCTGCTCT) | 0.251 |
| CGGTTGCCATGGACCGGTTTTCCCGGTAATCCGTATTTGGC (site CGGTTGCCTGC) | 0 |
| CGTAATCCATGGACCGGTTTTCCCGGTAATCCGTATTTGAT (site CGGAATCCTAA) | 0 |
| CGTAATCCATGGACCGGTTTTCCCGGTAATCCGTATTTGAT (site CGTAATCCTAT) | 0.697 |
| CGTAATCCATGGACCGGTTTTCCCGGTAATCCGTATTTGTC (site CGGAATCCTAA) | 0 |
| CGTAATCCATGGACCGGTTTTCCCGGTAATCCGTATTTGTC (site CGTAATCCTGA) | 1.47 |
| CGTACACCATGGACCGGTTTTCCCGGTAATCCGTATTTGAC (site AGTACACCTGT) | 0 |
| CGTACACCATGGACCGGTTTTCCCGGTAATCCGTATTTGAC (site CGTACACCTGT) | 0 |
| CGTACACCATGGACCGGTTTTCCCGGTAATCCGTATTTGAC (site GGTACACCTGT) | 0 |
| CGTACACCATGGACCGGTTTTCCCGGTAATCCGTATTTGAC (site TGTACACCTGT) | 0 |
| CGTACCGCATGGACCGGTTTTCCCGGTAATCCGTATTTGTC (site CGTACCGCTGA) | 2.78 |
| CGTAGATCATGGACCGGTTTTCCCGGTAATCCGTATTTGCA (site CGTAGATCTTG) | 2.44 |
| CGTAGTCCATGGACCGGTTTTCCCGGTAATCCGTATTTGTT (site CGGAATCCTAA) | 0 |
| CGTAGTCCATGGACCGGTTTTCCCGGTAATCCGTATTTGTT (site CGTAGTCCTAA) | 0.247 |
| CGTATACCATGGACCGGTTTTCCCGGTAATCCGTATTTGAA (site CGTATACCTTT) | 0.0161 |
| CGTATGGCATGGACCGGTTTTCCCGGTAATCCGTATTTGTG (site CGTATGGCTCA) | 1.33 |
| CGTATGTCATGGACCGGTTTTCCCGGTAATCCGTATTTGGT (site CGTATGTCTAC) | 1.59 |
